Assay results as given in patent publication US20260055061A1, “HALOPHTHALIMIDE COMPOUNDS AND METHODS OF USE AGAINST TBI, INFLAMMATORY DISORDER, AUTOIMMUNE DISORDER, NEURODEGENERATIVE DISEASE OR VIRAL INFECTION” (The United States of America, as represented by the …, priority 2022, published 2026).
pIC50: −log10 of the molar value.

What was measured:
[1] = biological target: cereblon (CRBN/DDB1-CUL4A-Rbx1 complex) / BRD3 (Homo sapiens (Human), UniProt Q96SW2); test: Cereblon/BRD3 binding assay (AlphaScreen / FRET); conditions: for cereblon binding (in words): cereblon/BRD3 binding FRET assay
Description: After 30 min of incubation with shaking at room temperature, AlphaLISA anti-FLAG Acceptor and Alpha Glutathione Donor beads (PerkinElmer) were sequentially added and then incubated for 1 hr at room temperature for each of the added chemicals. Alpha counts were thereafter read on a Synergy Neo2 (BioTek) for the analysis. Relative activity or inhibition was calculated as the highest value, which was set to 100%, and the lowest value was set to 0% after subtraction of the “blank value” from all readings.
After 30 min of incubation with shaking at room temperature, AlphaLISA anti-FLAG Acceptor and Alpha Glutathione Donor beads (PerkinElmer) were sequentially added and then incubated for 1 h at room temperature for each of the added chemicals. Alpha counts were thereafter read on a Synergy Neo2 (BioTek) for the analysis. The relative activity of the alpha signal was calculated after subtraction of the “blank value” from all readings, and the value of the vehicle group was then set as 100%.

SALL4 = SALL4 (Homo sapiens (Human), UniProt Q9UJQ4); test: SALL4 expression in Tera-1 cells (Western blot); assay type: cell-based; conditions: for SALL4 levels: human Tera-1 cells, 0.01, 0.1, 1 μM, relative to GAPDH
Description: (§1) For Western blot analysis, total proteins were extracted using RIPA buffer (ThermoFisher Scientific, Waltham, MA) containing Halt Protease Inhibitor Cocktail (ThermoFisher Scientific). […] After incubation at 4° C. overnight, the following HRP conjugated secondary antibodies were used: (i) goat anti-rabbit IgG (ThermoFisher Scientific) for ikaros and aiolos, and (ii) goat anti-mouse IgG (ThermoFisher Scientific) for SALL4 and GAPDH. […] Antigen-antibody complexes were detected using enhanced chemiluminescence (Thermo, iBright CL1500).
(§2) Specifically, MM1.S cells were obtained from ATCC (Manassas, VA, USA), grown in RPMI media supplemented with 10% FBS, penicillin 100 U/mL, and streptomycin […], and maintained at 37° C. and 5% CO2.
as §1, with “MA, USA)” for “MA)”, “Scientific). Thereafter, the proteins were separated by gel electrophoresis and then transferred to polyvinylidene difluoride (PVDF) membranes (ThermoFisher Scientific), as described previously.” for “Scientific).”, “HRP-conjugated” for “HRP conjugated”, “Ikaros” for “ikaros”, “Aiolos,” for “aiolos,”, “(ThermoFisher Scientific,” for “(Thermo,”

Aiolos = Aiolos (Homo sapiens (Human), UniProt Q9UKT9); test: Aiolos degradation in MM1.S cells (Western blot); assay type: cell-based; conditions: 1 μM, relative to GAPDH
Description: as §1, §2
(§3) For Western blot analysis, total proteins were extracted using RIPA buffer (ThermoFisher Scientific, Waltham, MA, USA) containing Halt Protease Inhibitor Cocktail (ThermoFisher Scientific). Thereafter, the proteins were separated by gel electrophoresis and then transferred to polyvinylidene difluoride (PVDF) membranes (ThermoFisher Scientific), as described previously. […] Antigen-antibody complexes were detected using enhanced chemiluminescence (ThermoFisher Scientific, iBright CL1500).

Ikaros = Ikaros (Homo sapiens (Human), UniProt Q13422); test: Ikaros degradation in MM1.S cells (Western blot); assay type: cell-based; conditions: 1 μM, relative to GAPDH
Description: as §1, §2, §3

CCI-induced TBI mice = test: CCI mouse model of TBI: DigiGait gait analysis; assay type: in vivo
Description: In vivo model of TBI: Mice were anesthetized with 2.5% tribromoethanol (Avertin: 250 mg/kg; Sigma, St. Louis, MO, USA) and placed in a stereotaxic frame (Kopf Instruments, Tujunga, CA, USA). A 4 mm craniotomy was performed using sterile procedures; the craniotomy point was selected midway between the lambda and bregma sutures and laterally midway between the central suture and the temporalis muscle. The skull fragment was then carefully removed without disruption of the underlying dura. Prior to injury induction, the tip of the impactor was angled and kept perpendicular to the exposed cortical surface. The mouse CCI instrument consisted of an electromagnetic impactor, Impact One (Leica Biosystems Inc., Buffalo Grove, IL, USA) that allows independent alteration of injury severity by controlling contact velocity and the level of cortical deformation. In these experiments, the contact velocity was set at 5.0 m/sec, the dwell time was set at 0.2 s and the deformation depth was set at 2 mm to produce a moderate TBI. The injury site was allowed to dry prior to suturing the wound. During surgery and recovery, the body temperature of the animals was maintained at 36-37° C. by using a heating pad. […] Mice were randomized following CCI to treatment with either of two doses of TFBP (16.25 mg/kg and 32.5 mg/kg, i.p.) or saline, and were dosed at 1 and 24 hr after the injury.
Behavioral assessment for motor functions and coordination: Behavioral tests were performed 1 week and 2 weeks after injury, to assess changes in motor functions and coordination. All tests were performed during the animals' light phase; cages were transported to testing rooms at least 30 min prior to testing.
Gait analysis: For the gait analysis, mice were tested on a fixed-speed treadmill apparatus (DigiGait; Mouse Specifics). Mice were habituated to the apparatus for 1 min, and then given a 1-min run at 5 cm/s. Following a 1-min rest, the treadmill speed was increased to 15 cm/s. Video was collected at high speed from a ventrally placed camera, and 3-5 s of representative gait video was selected by an experienced but blinded user for automated analysis.
In Vivo Model of TBI: TBI studies were conducted in 8-week-old male C57/BL6 mice (25-30 g; n=20), Jackson Laboratory, Bar Harbor, Maine USA. Mice were randomly assigned to four groups prior surgery, CMC+Sham, CMC+TBI, compound 30 (Low dose (LD), 14.78 mg/kg, prepared in 1% CMC in PBS)+TBI, compound 30 (High dose (HD), 29.57 mg/kg)+TBI, and evaluated the effects of compound 30 on TBI. Mice were assessed for gait function and motor coordination, balance function. Animals were subsequently evaluated for cellular changes using histological and immunohistochemistry staining. […]

[2] = system: LPS-induced nitrite in RAW 264.7 cells; test: LPS-induced nitrite production in RAW 264.7 cells (Griess reagent / fluorometric kit); assay type: cell-based, mouse; conditions: LPS-challenged RAW 264.7 cells, percentage of vehicle control value (control = 100%), mean ± S.E.M., n = 3
Description: Nitrite ion detection in drug treated […] cell culture media: To measure the levels of nitrite ion NO2—) the Griess Reagent System (Promega, Madison, WI, Cat #G2930) was utilized. The protocol followed was that recommended by the manufacturer. In brief a NO2— ion standard curve was prepared in culture media of the same composition to that used for the cell culture study. The concentration range of the standard curve was from 1.5 µM to 100 µM. Equal volumes (50 μL) of standards and unknown samples were added to clear 96 well plates in duplicate. Then 50 μL of sulfanilamide solution was added to each well and the plate was covered and incubated in the dark for 10 min. After the incubation period 50 μL of N-1-napthylethylenediamine dihydrochloride solution was added to each well and the plate was incubated in dark for a further 10 min. After this incubation, the plate was read at 550 nm on a SPECTRAmax PLUS plate reader and the absorbances were used to generate a NO2— standard curve and the NO2— ion levels of the unknown samples are determined using SoftMax Pro V5, Molecular Devices.
Most neurons are highly vulnerable to RNS and ROS. Nitric oxide (NO) is one of RNSs, which is very short lived and cannot be readily measured. However, nitrite is a stable end product of nitric oxide metabolism. Therefore, nitrite acts as a surrogate measure of NO. The Griess Reagent System (Promega Corporation, Madison, WI) can be applied to measure nitrite levels in culture media following the manufacturer's protocol, and this system was used in the present study as it is a more sensitive assay compared to quantifying actions on TNF-α by ELISA assay. […] This challenge induces high level of TNF-α protein accompanied by a robust generation of nitrite.
(§4) Cells were propagated as described by ATCC guidelines.

TNF-α = test: LPS-induced TNF-α production in RAW 264.7 cells (ELISA); assay type: cell-based, mouse; conditions: LPS-challenged RAW 264.7 cells, percentage of vehicle control value (control = 100%), mean ± S.E.M., n = 3
Description: Enzyme-linked immunosorbent assay for TNF-α protein: Media TNF-α levels were measured by use of the Biolegend ELISA MAX Set Delux ELISA (#430904). The protocol used was that recommended by the manufacturer. In brief, a day prior to performing the assay, a 96 well plate was coated with a capture antibody directed against TNF-α. The following day the assay plate was washed and blocked with the kit blocking agent for 1 h while being mixed on a plate shaker at 200 rpm (all incubations were mixed at 200 rpm unless stated otherwise). A TNF-α protein standard curve was prepared in the assay diluent following the kit instructions and unknown media samples were likewise diluted in the same assay diluent. After blocking, the plate was washed and then both the standards and unknown media samples were added to the plate in duplicate. The standards and unknown samples were incubated for 2 h. After the incubation, the plate was washed and then the biotin labeled detection antibody was added to each well and incubated for a further 1 h. After this incubation, the avidin-HRP conjugate complex was added to each well and incubated for 30 min. The plate was washed and the chromogenic substrate 3,3′,5,5′-tetramethylbenzidine solution was added to each well. At this point the plate was covered and incubated in the dark for 15 min, with no mixing. After 15 min the chromogenic reaction was stopped by the addition of 2 N H2SO4 and the absorbance was read at 450 nm and for background subtractions at 570 nm, on a SPECTRAmax PLUS plate reader. The absorbances were used to generate a TNF-α a protein standard curve and the protein levels in the unknown samples were determined using SoftMax Pro V5, Molecular Devices.
as §4

SARS-CoV-2 = test: Anti-SARS-CoV-2 activity (FIG. 6); assay type: cell-based
[3] = Cytotoxicity in the anti-SARS-CoV-2 evaluation (FIG. 6); assay type: cell-based; conditions: 25 μM
RAW 264.7 cells = test: Cell viability of drug treated RAW 264.7 cells (CellTiter 96 AQueous One, MTS); conditions: RAW 264.7 cells, percentage of vehicle control value, mean ± S.E.M., n = 3
Description: Assessments of drug anti-TNF-α and nitric oxide generation in RAW 264.7 cells: RAW 264.7 cells were purchased from ATCC Manassas, VA, USA). The cells were grown in DMEM media (Invitrogen, DMEM, high glucose, GlutaMAX Supplement, pyruvate, #10569-010) supplemented with 10% FBS (Invitrogen, Fetal Bovine Serum, qualified, heat inactivated, #16140-071) with penicillin and streptomycin (Invitrogen, Penicillin-Streptomycin (10,000 U/mL), #15140-122) and were maintained at 37 C and 5% CO2. The cells were grown to 75%-85% confluence on 10 cm plates (corning-Fal-con, #353003) following the protocol described by ATTC. to assess for drug effects on LPS-induced markers of inflammation, namely TNF-α protein and nitrite ion levels (NO2, a stable end-product of nitric oxide metabolism) cells were seeded into 24 well (VWR, #10062-896) at a density of 200×10^3 cells per well. On each plate there was one blank well where no cells were added yet culture media in the well was treated similarly to wells with cells (n=1). The blank well media was used for background subtraction for various downstream assays. twenty-four hours after seeding the plate the seeding media was replaced with fresh media. Two hours after this the cells were exposed to a range of concentrations of drug test-compound(s) dissolved in 100% tissue culture grade dimethyl sjloxide (DMSO, SIGMA #D2650). Drug stocks were prepared in a 200 times more concentrated stock in DMSO. The final concentration of DMSO added to the cells was 0.5%. The effects of each concentration of drug were assessed in 4 wells per concentration in the 24 well plate (n=3 #-4). On each plate one set of wells were assigned as drug-vehicle control (i.e. DMSO), one test compound was assessed on one 24 well plate. […] One hour after the drugs were added the cells were challenged with lipopolysaccharide (LPS, SIGMA, serotype 055:B5) at a final concentration of 60 ng/ml. Twenty to twenty-four hours after the cells were challenged with LPS the culture media was collected and utilized for the measurement of markers of inflammation.
Cellular viability assessment of drug treated RAW 264.7 cells: RAW 264.7 cell viability was determined by use of the CellTiter 96 AQueous One Solution Cell Proliferation Assay (Promega, Madison, WI). Changes in cellular health status were determined by use of indirect measures related to the formation of a colored tetrazolium dye product that can be measured spectrophotometrically at 490 nm. An increase in absorbance at 490 nm is indicative of an increase in numbers of healthy cells; similarly a reduction in absorbance is indicative of a reduction of healthy cells. After the culture media was harvested for use in TNF-α and NO2— ion assays, the media was replaced with 0.5 mL of fresh media plus 100 μL of the cell viability reaction mixture. After a 20-30 min incubation at 37° C. with 5% CO2 the absorbance at 490 nm was obtained using an infinite M200 PRO plate reader (TECAN, USA).
Statistical analyses for RAW-derived assays: Data are expressed as a percentage change from the DMSO-vehicle control measurements. Measurements are expressed as mean±standard errors, where the n number represents the number of wells in a 24 well plate. Due to the presence of one blank control well on each plate, for some drug concentrations the n number is 3 # and not 4. Statistical comparisons were undertaken by use of a One-Way ANOVA with appropriate Bonferroni corrections for multiple comparisons, as required (GraphPad InStat Version 3.05). P values of <0.05 are considered to be of statistical significance.
RAW 264.7 cell culture: RAW 264.7 mouse cells were purchased from ATCC (Manassas, VA, USA) and grown in DMEM media supplemented with 10% FCS, penicillin 100 U/ml and streptomycin 100 μg/ml (ThermoFisher Scientific, Asheville, NC, USA). The cells were maintained at 37° C. and 5% CO2.

Chain of cereblon (CRBN/DDB1-CUL4A-Rbx1 complex) / BRD3 (Q96SW2 whole entry): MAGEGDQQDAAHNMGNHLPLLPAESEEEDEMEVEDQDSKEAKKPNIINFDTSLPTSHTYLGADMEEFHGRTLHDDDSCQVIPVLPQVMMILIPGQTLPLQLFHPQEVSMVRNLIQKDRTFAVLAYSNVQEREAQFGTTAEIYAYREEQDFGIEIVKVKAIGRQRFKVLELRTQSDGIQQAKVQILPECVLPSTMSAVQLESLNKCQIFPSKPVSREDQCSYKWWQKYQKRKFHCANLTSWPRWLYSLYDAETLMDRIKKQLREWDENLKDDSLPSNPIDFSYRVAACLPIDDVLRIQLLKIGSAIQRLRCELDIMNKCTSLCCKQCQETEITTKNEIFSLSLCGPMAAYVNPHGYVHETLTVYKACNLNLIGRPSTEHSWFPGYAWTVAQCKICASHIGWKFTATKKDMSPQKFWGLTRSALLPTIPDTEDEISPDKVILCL
Chain of cereblon (CRBN/DDB1-CUL4A-Rbx1 complex) / BRD3 (Q16531 whole entry partner): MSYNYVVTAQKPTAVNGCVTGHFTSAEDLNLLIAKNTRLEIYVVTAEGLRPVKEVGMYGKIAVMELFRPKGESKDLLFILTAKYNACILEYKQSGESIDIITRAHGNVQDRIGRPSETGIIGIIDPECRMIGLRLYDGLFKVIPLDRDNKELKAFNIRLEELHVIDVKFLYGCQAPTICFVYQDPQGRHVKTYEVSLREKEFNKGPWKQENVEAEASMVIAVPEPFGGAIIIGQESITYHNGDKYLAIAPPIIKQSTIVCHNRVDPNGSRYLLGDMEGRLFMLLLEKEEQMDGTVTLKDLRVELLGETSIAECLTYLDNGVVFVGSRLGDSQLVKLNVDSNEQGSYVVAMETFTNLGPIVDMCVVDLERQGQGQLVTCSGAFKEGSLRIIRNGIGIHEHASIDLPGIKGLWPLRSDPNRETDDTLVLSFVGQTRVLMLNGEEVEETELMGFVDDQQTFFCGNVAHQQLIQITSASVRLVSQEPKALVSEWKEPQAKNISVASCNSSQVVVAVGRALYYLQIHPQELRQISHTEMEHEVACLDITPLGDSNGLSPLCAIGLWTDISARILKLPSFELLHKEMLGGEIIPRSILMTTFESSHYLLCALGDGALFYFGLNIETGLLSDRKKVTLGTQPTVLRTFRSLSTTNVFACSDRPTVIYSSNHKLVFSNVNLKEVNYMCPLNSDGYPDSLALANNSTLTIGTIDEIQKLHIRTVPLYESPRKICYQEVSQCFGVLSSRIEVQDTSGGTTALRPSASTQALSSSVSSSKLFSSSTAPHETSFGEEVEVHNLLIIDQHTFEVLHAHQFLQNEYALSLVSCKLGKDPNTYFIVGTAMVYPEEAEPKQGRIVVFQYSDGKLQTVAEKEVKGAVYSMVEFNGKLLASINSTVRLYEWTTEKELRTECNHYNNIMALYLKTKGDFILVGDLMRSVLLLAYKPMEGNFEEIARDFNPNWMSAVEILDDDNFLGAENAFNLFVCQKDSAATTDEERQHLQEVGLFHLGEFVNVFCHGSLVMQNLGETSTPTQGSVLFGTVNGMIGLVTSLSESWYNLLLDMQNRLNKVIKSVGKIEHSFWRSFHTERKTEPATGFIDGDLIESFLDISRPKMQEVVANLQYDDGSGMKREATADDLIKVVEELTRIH
Chain of cereblon (CRBN/DDB1-CUL4A-Rbx1 complex) / BRD3 (Q13619 whole entry partner): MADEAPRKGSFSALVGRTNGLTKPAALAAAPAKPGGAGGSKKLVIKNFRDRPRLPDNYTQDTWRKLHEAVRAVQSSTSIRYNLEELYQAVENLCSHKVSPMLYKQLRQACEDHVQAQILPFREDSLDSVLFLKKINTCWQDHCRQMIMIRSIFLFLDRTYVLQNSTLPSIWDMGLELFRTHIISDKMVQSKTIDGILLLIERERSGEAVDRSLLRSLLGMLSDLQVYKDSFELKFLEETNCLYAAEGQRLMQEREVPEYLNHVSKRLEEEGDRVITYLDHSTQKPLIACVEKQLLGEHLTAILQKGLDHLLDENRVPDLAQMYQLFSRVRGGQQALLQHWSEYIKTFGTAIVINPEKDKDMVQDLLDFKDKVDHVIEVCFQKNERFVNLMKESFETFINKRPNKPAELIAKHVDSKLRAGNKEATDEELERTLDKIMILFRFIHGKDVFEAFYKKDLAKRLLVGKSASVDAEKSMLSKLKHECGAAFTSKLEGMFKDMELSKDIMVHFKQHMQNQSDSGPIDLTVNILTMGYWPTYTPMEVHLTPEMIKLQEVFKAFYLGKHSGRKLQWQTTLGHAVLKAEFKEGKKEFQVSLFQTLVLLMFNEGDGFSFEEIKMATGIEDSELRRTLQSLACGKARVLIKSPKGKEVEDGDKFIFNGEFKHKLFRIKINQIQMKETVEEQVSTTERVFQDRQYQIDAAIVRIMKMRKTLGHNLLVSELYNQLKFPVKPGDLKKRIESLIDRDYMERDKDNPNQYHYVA
Chain of cereblon (CRBN/DDB1-CUL4A-Rbx1 complex) / BRD3 (P62877 whole entry partner): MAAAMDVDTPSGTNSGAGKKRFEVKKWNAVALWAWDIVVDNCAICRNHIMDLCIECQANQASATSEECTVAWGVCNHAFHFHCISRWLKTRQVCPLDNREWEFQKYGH

pIC50 ([1]; Example 6, FIG. 28A)	cereblon binding (in words) [1]	SALL4 levels (SALL4)	Aiolos levels (Aiolos)	Ikaros levels (Ikaros)	Compound	gait % of brake phase (CCI-induced TBI mice; high dose 29.57 mg/kg)	gait propel time and % of propel phase (CCI-induced TBI mice; high dose 29.57 mg/kg)	gait brake time (CCI-induced TBI mice; low dose 14.78 mg/kg, 1 and 2 weeks after TBI)	SALL4 expression levels (SALL4; Tera-1 cells, 1 μM)	nitrite level, % of vehicle control ([2]; 1 μM) [%]	nitrite level, % of vehicle control ([2]; 10 μM) [%]	TNF-α % Δ (TNF-α; 1 μM) [%]	TNF-α % Δ (TNF-α; 10 μM) [%]	SARS-CoV-2 inhibitory activity (SARS-CoV-2)	cytotoxicity [3]	Cell Viability % Δ (RAW 264.7 cells; 1 μM) [%]	Cell Viability % Δ (RAW 264.7 cells; 10 μM) [%]
5.58	potently bind to cereblon	no significant effect	no significant effect	no significant effect	4-amino-7-fluoro-2-(2-oxo-6-thioxopiperidin-3-yl)-3-thioxoisoindolin-1-one [Compound 30]	impairment of brake phase was ameliorated	significantly mitigate propel time and % of propel phase	significantly mitigated the deficit of brake time	–	–	–	–	–	–	–	–	–
–	potently bind to cereblon	dramatically lowerered	dramatically lowerered	dramatically lowerered	Nc1cccc2c1C(=O)N(C1CCC(=O)NC1=O)C2=O (racemic) [Pomalidomide, pomalidomide, reference compound]	–	–	–	induced a decrease in expression levels of SALL4	–	–	–	–	–	–	–	–
–	–	–	–	–	C[C@@H]1[C@@H](N2C(=O)c3c(F)ccc(F)c3C2=O)C[C@H]2C[C@@H]1C2(C)C [Compound 18, 4,7-Difluoro-2-((1S,2S,3S,5R)-2,6,6-trimethylbicyclo[3.1.1]heptan-3-yl) isoindoline-1,3-dione]	–	–	–	–	96 ± 4	71 ± 4	101 ± 5	89 ± 5	potent SARS-CoV-2 inhibitory activity	preliminarily acceptable cytotoxicity	102 ± 4	76 ± 5
